In one series the target is hERG (Homo sapiens, UniProt Q12809).
The nature of the next series: physchem. The following applies: 25 °C, pH 7.4, aqueous buffer, thermodynamic from solid. It is filed as physicochemical. As to the method: Solubility of the compounds in 0.1M phosphate buffer, pH 7.4 was determined as described, Glyburide was used as QC standard in the assay. Briefly, compounds were diluted in ACN/water (40:60) to desired concentration, samples were dried using Genevac for 4 hrs and subsequently 800 μl of buffer was added. Compound containing plates were stirred for 24 hrs at 25° C. on Eppendorf Thermomix R at 750 rpm. Finally, compound concentration was estimated using UV and MS analysis.

Another series is described as follows: in vivo. The following applies: BALB/c, mouse, po, 50 mg/kg.
The test system of series [1] is Mycobacterium tuberculosis (Mtb) H37Rv ATCC 27294. Put plainly: microbe, parasite or virus in culture. The series is classed as cell-based. The conditions noted are these: Mycobacterium tuberculosis, read-out: Mtb MIC.
The format of series [2] is in vitro ADME. The conditions noted are these: pH 7.4. As to the method:
1 μM compound was incubated with 1 mg/mL of microsomes (Pooled HLM/MLM with 20 mg/ml protein cone.) at 37° C. in 166 μL of buffer (100 mM phosphate buffer, pH-7.4) containing 2 mM NADPH solution. […] The quench plate was centrifuged at 4000 rpm for 15 min. 30 μL of supernatant was diluted to 300 μL with 50% acetonitrile in water and substrate depletion was analyzed using LC-MS/MS.

A further series in a line: in vitro. The series is classed as in vitro ADME. The conditions noted are these: pH 7.4; mouse microsomes; read-out: Mo micrsomal Clint. Here is the method:
1 μM compound was incubated with 1 mg/mL of microsomes (Pooled HLM/MLM with 20 mg/ml protein cone.) at 37° C. in 166 μL of buffer (100 mM phosphate buffer, pH-7.4) containing 2 mM NADPH solution. 20 μL of incubation mix was quenched with 4 volumes chilled acetonitrile at different time points i.e. 0, 2, 5, 10, 20 and 30 min in a fresh 96 well plate. The quench plate was centrifuged at 4000 rpm for 15 min. 30 μL of supernatant was diluted to 300 μL with 50% acetonitrile in water and substrate depletion was analyzed using LC-MS/MS.

Series [3] has as its system A549 human lung carcinoma cells. It is filed as cell-based. The following applies: human, 72 h. Here is the method:
The in vitro cytotoxicity of compounds were measured against A549 human lung carcinoma cells as describedin Eakin et. al (2012). Briefly, A549 cells (ATCC) were grown in RPMI medium (GIBCO-BRL) containing 10% heat-inactivated fetal bovine serum (GIBCO-BRL) and 1 mM L-glutamine (GIBCO-BRL) at a density of 1,000 cells/well. After incubation of the cells with compound in a CO2 atmosphere at 37° C. for 72 hours, cell viability was determined following addition of […] of resazurin solution (Sigma), by measuring fluorescence (excitation at 535 nm, emission at 590 nm) using a fluorimeter.

Values after ≈ are worked out from the molar mass of the structure shown. Read-outs that look alike come from different tables or passages of the source.

hERG, sequence (Q12809 whole entry): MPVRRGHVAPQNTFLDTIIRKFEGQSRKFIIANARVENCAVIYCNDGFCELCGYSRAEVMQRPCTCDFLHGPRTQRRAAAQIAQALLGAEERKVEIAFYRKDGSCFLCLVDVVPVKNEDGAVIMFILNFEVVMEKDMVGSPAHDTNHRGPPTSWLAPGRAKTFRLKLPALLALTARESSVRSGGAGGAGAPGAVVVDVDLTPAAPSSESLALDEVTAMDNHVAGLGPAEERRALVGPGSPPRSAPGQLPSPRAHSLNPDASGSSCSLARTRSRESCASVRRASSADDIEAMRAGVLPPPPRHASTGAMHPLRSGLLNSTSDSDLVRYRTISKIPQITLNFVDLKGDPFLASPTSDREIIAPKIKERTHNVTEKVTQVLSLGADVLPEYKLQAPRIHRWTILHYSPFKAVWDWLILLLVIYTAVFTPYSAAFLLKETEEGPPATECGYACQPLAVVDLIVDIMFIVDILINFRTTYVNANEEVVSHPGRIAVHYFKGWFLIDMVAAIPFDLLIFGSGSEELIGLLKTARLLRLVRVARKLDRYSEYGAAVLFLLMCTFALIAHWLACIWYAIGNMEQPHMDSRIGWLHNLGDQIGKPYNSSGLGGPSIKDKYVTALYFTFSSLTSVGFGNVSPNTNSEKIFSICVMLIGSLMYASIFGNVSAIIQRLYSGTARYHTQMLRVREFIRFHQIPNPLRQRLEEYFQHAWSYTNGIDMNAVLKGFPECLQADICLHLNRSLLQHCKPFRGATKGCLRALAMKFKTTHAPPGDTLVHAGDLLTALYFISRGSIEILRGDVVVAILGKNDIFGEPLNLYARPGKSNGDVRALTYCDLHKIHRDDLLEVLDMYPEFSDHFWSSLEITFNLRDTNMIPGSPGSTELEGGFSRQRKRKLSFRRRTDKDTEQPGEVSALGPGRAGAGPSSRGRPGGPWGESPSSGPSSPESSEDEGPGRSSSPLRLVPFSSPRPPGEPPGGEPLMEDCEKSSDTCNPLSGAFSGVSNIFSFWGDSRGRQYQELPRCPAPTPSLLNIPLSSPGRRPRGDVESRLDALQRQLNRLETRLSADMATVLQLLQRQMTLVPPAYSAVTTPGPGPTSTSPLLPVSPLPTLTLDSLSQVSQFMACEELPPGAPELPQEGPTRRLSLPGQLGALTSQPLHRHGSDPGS
Description for hERG: Compounds were tested on voltage-gated ion channels using the medium-throughput electrophysiology IonWorks™ device. […] For carrying out the experiment, a boat in the “Cells” position of the IonWorks™ instrument was loaded with the cell suspension, and a 96-well PBS destination plate was placed in the “Plate 1” position. A 384-well PatchPlate™ was placed in the IonWorks™ plenum and held in position using the plenum clamp. From this point the experiment progress is automated and ultimately reports a non-cumulative concentration-effect curve for test compound.

By solubility is commonly meant the concentration that dissolves in the medium under given conditions. A higher solubility goes with a readily soluble substance. In general, AUC(0-inf) refers to the area under the concentration-time curve extrapolated to infinity. The Cmax is the maximum level reached in the sampled fluid or tissue. One may read the Tmax as the time at which the peak concentration occurs. In general, half-life refers to the time needed for the level to fall by half in the phase considered. A higher half-life goes with slow loss. With `COc1ncnc(Cn2cc(C(=O)NCCF)c3ncccc32)c1C` [Compound 3, N-(2-fluoroethyl)-1-((6-methoxy-5-methylpyrimidin-4-yl)methyl)-1H-pyrrolo[3,2-b]pyridine-3-carboxamide], the hERG on hERG was above 33 µM. In the series “physchem”, this molecule came in with a solubility at 24 h of 8 µM (≈ 2.75 µg/mL). Also, in the series “in vivo”, the area under the curve AUC(0-inf) is 106 ± 3.04 µM·h, the highest concentration (Cmax) came to 17.8 ± 5.61 µM, the Tmax stood at 4.33 ± 1.15 h and the half-life is 2.38 ± 0.19 h. The MIC in series [1] (Table 1) was 1.56 µM (≈ 0.536 µg/mL). Also, in series [1] (Table 4), the MIC was in the range of 1.56 to 3.12 µM (≈ 0.536 to 1.07 µg/mL). In series [2], the “Human CLpred microsomes (% LBF)” value is on record as 10.4 % LBF. In addition, the microsomal CLint in the series “in vitro” is 104 µL/min/mg. Besides, the “MMIC (A549)” value in series [3] is above 100 µM.

Values taken from US9163020B2, “Azaindole compounds, synthesis thereof, and methods of using the same” (Global Alliance for TB Drug Development, priority 2013, dated 2015).
